Laboratory results as given in patent US20120128732A1, “COMBINATIONS AND MODES OF ADMINISTRATION OF THERAPEUTIC AGENTS AND COMBINATION THERAPY” (priority 2008, published 2012).

Assays:
[1] = tested on: MDA-MB-231 breast tumor xenografts; experiment: Survival signals in MDA-MB-231 breast tumor xenografts after Abraxane (Western blotting, immunohistochemistry); assay type: in vivo, mice
Method: […] Tumor lysates were analyzed for VEGF expression and pro-survival signals (p42 & p44 kinase, p-NF-κB p50, p-Akt, bcl-2) using Western blotting. Expression of bcl-2 was further analyzed by immunohistochemistry.

[2] = tested on: second or third-line metastatic colon cancer; conditions: perifosine in combination with capecitabine, patients with advanced; cited from earlier work
[3] = tested on: metastatic or advanced renal cell carcinoma; conditions: progressing after prior therapy with a VEGF receptor inhibitor; cited from earlier work
[4] = tested on: imatinib-resistant gastrointestinal stromal tumor; conditions: addition of perifosine to imatinib, patients; cited from earlier work

## CC(=O)O[C@H]1C(=O)[C@@]2(C)[C@H]([C@H](OC(=O)c3ccccc3)[C@]3(O)C[C@H](OC(=O)[C@H](O)[C@@H](NC(=O)c4ccccc4)c4ccccc4)C(C)=C1C3(C)C)[C@]1(OC(C)=O)CO[C@@H]1C[C@@H]2O [paclitaxel]
[1]; surviving MDA-MB-231 tumors, SCID mice, Abraxane 10 to 30 mg/kg IV qdx5, Western blotting and immunohistochemistry
  bcl-2 expression in tumors: Significant increases
[1]; tumors extracted immediately after therapy, Western blotting and immunohistochemistry
  inflammatory cytokines in tumors: Significant increases

## CCCCCCCCCCCCCCCCCCOP(=O)([O-])OC1CC[N+](C)(C)CC1 [perifosine]
[2]
  median time to progression over capecitabine alone: more than doubled
[3]
  clinical outcome in renal cell carcinoma: clinical benefits
[4]
  activity in imatinib-refractory gastrointestinal stromal tumor: minimal activity
